Test results taken from patent publication EP0471221B1, “Herbicidal compositions” (IDEMITSU KOSAN COMPANY LIMITED, priority 1990, dated 1992).

Columns and labels:
Galium aparine L. = assay: Test on post-emergence treatment (greenhouse pots, foliage spray); type: in vivo; conditions: after 20 days
Description: (§1) By uniformly blending 97 parts of clay (trademark: JIKURAITO, manufactured by JIKURAITO KOGYO) as the carrier, 1.5 parts of alkylaryl sulfonate (trademark: NEOPELEX, manufactured by Kao Atlas Co., Ltd.) as the surfactant, 1.5 parts of nonionic and anionic surfactant (trademark: Solpol 800A, manufactured by Toho Chemical Industry Co., Ltd.) and grinding into a powder, a carrier for wettable powders was obtained.
(§2) By uniformly blending 90 parts of this carrier for wettable powders and 10 parts of the triazine derivative shown in Table 1 (Compounds A-1 through A-7) or 10 parts of the thiocarbamate type herbicide shown in Table 2 (Compounds B) and grinding into a powder, wettable powders were obtained.
(§3) Furthermore, the carrier for wettable powders containing the triazine derivative obtained above was blended with the carrier for wettable powders containing the thiocarbamate type herbicide in definite amounts (ratios as active ingredients), uniformly kneaded and ground into powders to give wettable powders.
(§4) Wagner's pots of 1/2000 ares were filled with soil from upland fields and planted with weed seeds of Alopecurus myosuroides, Galium aparine L., Veronica hederifolia and Viola arvensis and crop seeds of wheat, barley and oat. The seeds were then covered with soil and cultivated in a greenhouse. An aqueous suspension of a definite amount of the herbicide obtained in Formulation Example 6 was uniformly sprayed onto the foliage of 1.5 to 2.5 leaf stage of these weeds and 3 leaf stage of the crops at a spray volume corresponding to 100 liters/10 ares. Then, cultivation was performed in the greenhouse. After 20 days, crop injury and the herbicidal effect on the weeds were evaluated according to the criterion described below.
(§5) The herbicidal rate described above was determined according to the following equation by measuring the raw weight of weed on the ground in the treated group and the raw weight of weed on the ground in the untreated group. [formula]
(§6) Some data were extracted from the results shown in Table 3 and the synergistic effect of the triazine derivative and the thiocarbamate type herbicide was examined on Galium aparine L. and Viola arvensis according to the following method. [formula] Q a : found data (%) of herbicidal rate when treated at a dosage corresponding to a g/10 ares using the triazine derivative alone as active ingredient Q b : found data (%) of herbicidal rate when treated at a dosage corresponding to b g/10 ares using the thiocarbamate type herbicide alone as active ingredient Q E : expected value [Limpel, L.E., P.H. Schuldt and D. Lamont, Proc. NEWCC, 16, 48-53 (1962)] Herein, when the found data (herbicidal rate) of the herbicidal obtained by mixing the triazine derivative and the thiocarbamate type herbicide is larger than Q E, it can be said that the herbicidal activity is synergistic.

Viola arvensis = assay: as above; type: in vivo; conditions: after 20 days
Description: as §1, §2, §3, §4, §5, §6

[1] = triazine derivative alone, 5 g/10a
[2] = triazine derivative alone, 10 g/10a
[3] = thiocarbamate type herbicide alone, 100 g/10a

Row | SMILES | Percent control of Galium aparine L.(%) (Galium aparine L.; [1]) | Percent control of Viola arvensis(%) (Viola arvensis; [1]) | Percent control of Galium aparine L.(%) (Galium aparine L.; [2]) | Percent control of Viola arvensis(%) (Viola arvensis; [2]) | also measured
1 | Cc1cc(C)cc(OCC(C)Nc2nc(N)nc(C(C)(C)F)n2)c1 (stereo not drawn) [A₇, 2-amino-4-(α-fluoro,α-methylethyl)-6-[2-(3',5'-dimethylphenoxy)-1-methylethylamino]-s-triazine] | 40% | 63% | – | – | –
2 | CC(F)c1nc(N)nc(NC(C)c2cc3ccccc3o2)n1 (stereo not drawn) [A₂, 2-amino-4-[1-(benzofuran-2'-yl)ethylamino]-6-(α-fluoroethyl)-s-triazine] | 37% | 68% | – | – | –
3 | CC(Nc1nc(N)nc(C(C)(C)F)n1)c1cc2ccccc2s1 (stereo not drawn) [A₃, 2-amino-4-[1-(benzothiophen-2'-yl)ethylamino]-6-(α-fluoro,α-methylethyl)-s-triazine] | – | – | 56% | 64% | –
4 | CC(COc1cccc(F)c1)Nc1nc(N)nc(C(C)(C)F)n1 (stereo not drawn) [A₅, 2-amino-4-(α-fluoro,α-methylethyl)-6-[2-(3'fluorophenoxy)-1-methylethylamino]-s-triazine] | 38% | 72% | – | – | –
5 | CC(Nc1nc(N)nc(C(C)(C)F)n1)c1cc2ccccc2o1 (stereo not drawn) [A₁, 2-amino-4-[1-(benzofuran-2'-yl)ethylamino]-6-(α-fluoro,α-methylethyl)-s-triazine] | – | – | 38% | 54% | –
6 | Cc1cc(C)cc(OCC(C)Nc2nc(N)nc(C(C)(C)Cl)n2)c1 (stereo not drawn) [A₆, 2-amino-4-(α-chloro,α-methylethyl)-6-[2-(3',5'-dimethylphenoxy)-1-methylethylamino]-s-triazine] | – | – | 64% | 78% | –
7 | Cc1cccc(OCC(C)Nc2nc(N)nc(C(C)(C)F)n2)c1 (stereo not drawn) [A₄, 2-amino-4-(α-fluoro,α-methylethyl)-6-[2-(3'-methylphenoxy)-1-methylethylamino]-s-triazine] | – | – | 62% | 74% | –
8 | CCCN(CCC)C(=O)SCc1ccccc1 [B, S-benzyldipropyl thiocarbamate, reference compound] | – | – | – | – | Percent control of Galium aparine L.(%) (Galium aparine L.; [3]): 36%; Percent control of Viola arvensis(%) (Viola arvensis; [3]): 19%
